Our source for the IC50 values is US6881741B2 (ViroChem Pharma Inc., priority 2001, dated 2005).

The target of the test is recombinant HCV NS5B (HCV RNA-dependent RNA polymerase) (Hepatitis C virus genotype 1b, UniProt P26663). In words: biochemical. Particulars: HCV polymerase activity, list of compounds of Example 27; read-out: IC50 (polymerase activity).
recombinant HCV NS5B (HCV RNA-dependent RNA polymerase), sequence (P26663 2420-3010 limits assumed): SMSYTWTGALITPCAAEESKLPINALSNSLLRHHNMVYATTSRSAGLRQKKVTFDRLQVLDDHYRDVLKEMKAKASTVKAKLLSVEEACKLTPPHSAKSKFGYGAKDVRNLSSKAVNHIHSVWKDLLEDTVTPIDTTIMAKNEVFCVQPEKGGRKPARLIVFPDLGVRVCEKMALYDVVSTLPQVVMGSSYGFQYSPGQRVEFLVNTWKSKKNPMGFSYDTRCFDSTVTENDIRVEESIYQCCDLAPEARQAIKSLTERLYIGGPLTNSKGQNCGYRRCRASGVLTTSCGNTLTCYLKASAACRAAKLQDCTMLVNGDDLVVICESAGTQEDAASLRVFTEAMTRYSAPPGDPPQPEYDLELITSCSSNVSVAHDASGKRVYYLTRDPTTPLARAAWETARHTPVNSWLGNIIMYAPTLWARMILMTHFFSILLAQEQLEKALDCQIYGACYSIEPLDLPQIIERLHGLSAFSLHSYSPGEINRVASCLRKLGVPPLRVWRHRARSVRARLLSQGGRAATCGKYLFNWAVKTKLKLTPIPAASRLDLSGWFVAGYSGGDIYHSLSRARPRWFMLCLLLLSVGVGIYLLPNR

With `CC(C)C(=O)N(Cc1ccccc1Cl)c1cc(-c2ccccc2)sc1C(=O)O` [Compound 421, 3-[(2-CHLORO-BENZYL)-ISOBUTYRYL- AMINO]-5-PHENYL-THIOPHENE-2- CARBOXYLIC ACID], the IC50 – broadly, the concentration needed to halve the response being measured – was 5 to 20 µM. The same measure for `CC(C)CC(=O)N(Cc1ccccc1Cl)c1cc(-c2ccccc2)sc1C(=O)O` [Compound 422, 3-[(2-CHLORO-BENZYL)-(3-METHYL- BUTYRYL)-AMINO]-5-PHENYL- THIOPHENE-2-CARBOXYLIC ACID]: 5 to 20 µM. The result for `O=C(O)c1sc(-c2ccccc2)cc1N(Cc1ccccc1Cl)C(=O)C1CC1` [Compound 423, 3-[(2-CHLORO-BENZYL)- CYCLOPROPANECARBONYL-AMINO]-5- PHENYL-THIOPHENE-2-CARBOXYLIC ACID] reads greater than 20 µM; that for `CC(C)N(C(=O)C12CC3CC(CC(C3)C1)C2)c1cc(-c2ccccc2)sc1C(=O)O` [Compound 424, 3-[(ADAMANTANE-1-CARBONYL)- ISOPROPYL-AMINO]-5-PHENYL- THIOPHENE-2-CARBOXYLIC ACID], greater than 20 µM; that for `O=C(O)c1sc(-c2ccccc2)cc1N(Cc1ccccc1Cl)C(=O)C1CCC1` [Compound 425, 3-[(2-CHLORO-BENZYL)- CYCLOBUTANECARBONYL-AMINO]-5- PHENYL-THIOPHENE-2-CARBOXYLIC ACID], 5 to 20 µM. In the case of `CC(=O)N(Cc1ccccc1C)c1cc(-c2ccccc2)sc1C(=O)O` [Compound 426, 3-[ACETYL-(2-METHYL-BENZYL)-AMINO]- 5-PHENYL-THIOPHENE-2-CARBOXYLIC ACID], the IC50 was greater than 20 µM. Take `CCC(=O)N(Cc1ccccc1C)c1cc(-c2ccccc2)sc1C(=O)O` [Compound 427, 3-[(2-METHYL-BENZYL)-PROPIONYL- AMINO]-5-PHENYL-THIOPHENE-2- CARBOXYLIC ACID]: the IC50 is 5 to 20 µM.

With `Cc1ccc(C(=O)N(c2cc(-c3cccc(C(F)(F)F)c3)sc2C(=O)O)C(C)C)c(O)c1` [Compound 428, 3-[(2-HYDROXY-4-METHYL-BENZOYL)- ISOPROPYL-AMINO]-5-(3- TRIFLUOROMETHYL-PHENYL)- THIOPHENE-2-CARBOXYLIC ACID], the IC50 is 5 to 20 µM. The same measure for `CC(=O)N1CCC(N(C(=O)c2ccc(Cl)cc2Cl)c2cc(-c3ccccc3)sc2C(=O)O)CC1` [Compound 429, 3-[(1-ACETYL-PIPERIDIN-4-YL)-(2,4- DICHLORO-BENZOYL)-AMINO]-5- PHENYL-THIOPHENE-2-CARBOXYLIC ACID]: less than 5 µM. The result for `CC(C)N(C(=O)c1ccc(Cl)cc1Cl)c1cc(-c2ccc(-c3nnn[nH]3)cc2)sc1C(=O)O` [Compound 430, 3-[(2,4-DICHLORO-BENZOYL)- ISOPROPYL-AMINO]-5-[4-(1#H!- TETRAZOL-5-YL)-PHENYL]-THIOPHENE- 2-CARBOXYLIC ACID] reads less than 5 µM; that for `Cc1ccc(C(=O)N(c2cc(-c3ccccc3)sc2C(=O)O)C(C)C)c(C#N)c1` [Compound 431, 3-[(2-CYANO-4-METHYL-BENZOYL)- ISOPROPYL-AMINO]-5-PHENYL- THIOPHENE-2-CARBOXYLIC ACID], 5 to 20 µM; that for `Cc1ccccc1CN(C(=O)C1CCC1)c1cc(-c2ccccc2)sc1C(=O)O` [Compound 432, 3-[CYCLOBUTANECARBONYL-(2- METHYL-BENZYL)-AMINO]-5-PHENYL- THIOPHENE-2-CARBOXYLIC ACID], 5 to 20 µM. The result for `CCCC(=O)N(Cc1ccccc1C)c1cc(-c2ccccc2)sc1C(=O)O` [Compound 433, 3-[BUTYRYL-(2-METHYL-BENZYL)- AMINO]-5-PHENYL-THIOPHENE-2- CARBOXYLIC ACID] reads 5 to 20 µM; that for `CC(=O)N(Cc1cccc(C)c1)c1cc(-c2ccccc2)sc1C(=O)O` [Compound 434, 3-[ACETYL-(3-METHYL-BENZYL)-AMINO]- 5-PHENYL-THIOPHENE-2-CARBOXYLIC ACID], 5 to 20 µM; that for `Cc1ccc(CN(C(=O)C2CCC2)c2cc(-c3ccccc3)sc2C(=O)O)cc1` [Compound 435, 3-[CYCLOBUTANECARBONYL-(4- METHYL-BENZYL)-AMINO]-5-PHENYL- THIOPHENE-2-CARBOXYLIC ACID], less than 5 µM. For `O=C(O)c1sc(-c2ccccc2)cc1N(Cc1ccc(C(F)(F)F)cc1)C(=O)C1CCCCC1` [Compound 436, 3-[CYCLOHEXANECARBONYL-(4- TRIFLUOROMETHYL-BENZYL)-AMINO]-5- PHENYL-THIOPHENE-2-CARBOXYLIC ACID], the IC50 was less than 5 µM. The result for `CC(C)C(=O)N(Cc1ccc(C(C)(C)C)cc1)c1cc(-c2ccccc2)sc1C(=O)O` [Compound 437, 3-[(4-TERT-BUTYL-BENZYL)- ISOBUTYRYL-AMINO]-5-PHENYL- THIOPHENE-2-CARBOXYLIC ACID] reads 5 to 20 µM; that for `CC(C)(C)c1ccc(CN(C(=O)C2CC2)c2cc(-c3ccccc3)sc2C(=O)O)cc1` [Compound 438, 3-[(4-TERT-BUTYL-BENZYL)- CYCLOPROPANECARBONYL-AMINO]-5- PHENYL-THIOPHENE-2-CARBOXYLIC ACID], 5 to 20 µM; that for `CC(C)(C)c1ccc(CN(C(=O)C2CCC2)c2cc(-c3ccccc3)sc2C(=O)O)cc1` [Compound 439, 3-[(4-TERT-BUTYL-BENZYL)- CYCLOBUTANECARBONYL-AMINO]-5- PHENYL-THIOPHENE-2-CARBOXYLIC ACID], less than 5 µM.

For `CCCC(=O)N(Cc1ccc(C(C)(C)C)cc1)c1cc(-c2ccccc2)sc1C(=O)O` [Compound 440, 3-[(4-TERT-BUTYL-BENZYL)-BUTYRYL- AMINO]-5-PHENYL-THIOPHENE-2- CARBOXYLIC ACID], the half-inhibitory concentration (IC50) was in the range of 5 to 20 µM.

With `CC(C)(C)c1ccc(CN(C(=O)C2CCCCC2)c2cc(-c3ccccc3)sc2C(=O)O)cc1` [Compound 441, 3-[(4-TERT-BUTYL-BENZYL)- CYCLOHEXANECARBONYL-AMINO]-5- PHENYL-THIOPHENE-2-CARBOXYLIC ACID], the IC50 is less than 5 µM. The result for `CC(C)(C)c1ccc(CN(C(=O)CC2CCCC2)c2cc(-c3ccccc3)sc2C(=O)O)cc1` [Compound 442, 3-[(4-TERT-BUTYL-BENZYL)-(2- CYCLOPENTYL-ACETYL)-AMINO]-5- PHENYL-THIOPHENE-2-CARBOXYLIC ACID] reads less than 5 µM. The same measure for `O=C(O)c1sc(-c2ccccc2)cc1N(Cc1ccc([N+](=O)[O-])cc1)C(=O)CC1CCCC1` [Compound 443, 3-[(2-CYCLOPENTYL-ACETYL)-(4-NITRO- BENZYL)-AMINO]-5-PHENYL-THIOPHENE- 2-CARBOXYLIC ACID]: less than 5 µM.

Regarding `O=C(O)c1sc(-c2ccccc2)cc1N(Cc1ccccc1Cl)C(=O)C1CCCCC1` [Compound 444, 3-[(2-CHLORO-BENZYL)- CYCLOHEXANECARBONYL-AMINO]-5- PHENYL-THIOPHENE-2-CARBOXYLIC ACID], the IC50 was less than 5 µM. The result for `Cc1cccc(CN(C(=O)CC2CCCC2)c2cc(-c3ccccc3)sc2C(=O)O)c1` [Compound 445, 3-[(2-CYCLOPENTYL-ACETYL)-(3- METHYL-BENZYL)-AMINO]-5-PHENYL- THIOPHENE-2-CARBOXYLIC ACID] reads less than 5 µM; that for `CCCC(=O)N(Cc1cccc(C)c1)c1cc(-c2ccccc2)sc1C(=O)O` [Compound 446, 3-[BUTYRYL-(3-METHYL-BENZYL)- AMINO]-5-PHENYL-THIOPHENE-2- CARBOXYLIC ACID], 5 to 20 µM; that for `CCCC(=O)N(Cc1ccccc1Cl)c1cc(-c2ccccc2)sc1C(=O)O` [Compound 447, 3-[BUTYRYL-(2-CHLORO-BENZYL)- AMINO]-5-PHENYL-THIOPHENE-2- CARBOXYLIC ACID], less than 5 µM.

Consider `Cc1cccc(-c2cc(N(C(=O)C3CCC(C)CC3)C(C)C)c(C(=O)O)s2)c1` (centres unmarked) [Compound 448, 3-[ISOPROPYL-(4-METHYL- CYCLOHEXANECARBONYL)-AMINO]-5- #M!-TOLYL-THIOPHENE-2-CARBOXYLIC ACID], for which the IC50 was less than 5 µM. The same measure for `CC(C)N(C(=O)c1ccc(Cl)cc1Cl)c1cc(-c2nccs2)sc1C(=O)O` [Compound 449, 3-[(2,4-DICHLORO-BENZOYL)- ISOPROPYL-AMINO]-5-THIAZOL-2-YL- THIOPHENE-2-CARBOXYLIC ACID]: less than 5 µM; for `CC(=O)N(Cc1ccccc1)c1cc(-c2ccccc2)sc1C(=O)O` [Compound 450, 3-(ACETYL-BENZYL-AMINO)-5-PHENYL- THIOPHENE-2-CARBOXYLIC ACID]: less than 5 µM. As for `CCC(=O)N(Cc1ccccc1)c1cc(-c2ccccc2)sc1C(=O)O` [Compound 451, 3-(BENZYL-PROPIONYL-AMINO)-5- PHENYL-THIOPHENE-2-CARBOXYLIC ACID], the half-maximal inhibitory concentration (IC50) is less than 5 µM.

Turning to `COCC(=O)N(Cc1ccccc1)c1cc(-c2ccccc2)sc1C(=O)O` [Compound 452, 3-[BENZYL-(2-METHOXY-ACETYL)- AMINO]-5-PHENYL-THIOPHENE-2- CARBOXYLIC ACID], the IC50 is less than 5 µM. The same measure for `CC(C)CC(=O)N(Cc1ccccc1)c1cc(-c2ccccc2)sc1C(=O)O` [Compound 453, 3-[BENZYL-(3-METHYL-BUTYRYL)- AMINO]-5-PHENYL-THIOPHENE-2- CARBOXYLIC ACID]: less than 5 µM. The result for `O=C(O)c1sc(-c2ccccc2)cc1N(Cc1ccccc1)C(=O)C1CC1` [Compound 454, 3-(BENZYL-CYCLOPROPANECARBONYL- AMINO)-5-PHENYL-THIOPHENE-2- CARBOXYLIC ACID] reads less than 5 µM; that for `CC(=O)N(Cc1ccc(Cl)cc1)c1cc(-c2ccccc2)sc1C(=O)O` [Compound 455, 3-[ACETYL-(4-CHLORO-BENZYL)-AMINO]- 5-PHENYL-THIOPHENE-2-CARBOXYLIC ACID], 5 to 20 µM. On to `CCC(=O)N(Cc1ccc(Cl)cc1)c1cc(-c2ccccc2)sc1C(=O)O` [Compound 456, 3-[(4-CHLORO-BENZYL)-PROPIONYL- AMINO]-5-PHENYL-THIOPHENE-2- CARBOXYLIC ACID], for which the IC50 is less than 5 µM. Consider `CC(C)C(=O)N(Cc1ccc(Cl)cc1)c1cc(-c2ccccc2)sc1C(=O)O` [Compound 457, 3-[(4-CHLORO-BENZYL)-ISOBUTYRYL- AMINO]-5-PHENYL-THIOPHENE-2- CARBOXYLIC ACID], for which the IC50 lay within 5 to 20 µM. Take `CC(C)CC(=O)N(Cc1ccc(Cl)cc1)c1cc(-c2ccccc2)sc1C(=O)O` [Compound 458, 3-[(4-CHLORO-BENZYL)-(3-METHYL- BUTYRYL)-AMINO]-5-PHENYL- THIOPHENE-2-CARBOXYLIC ACID]: the IC50 lay in the range of 5 to 20 µM.
